Values of other authors, collected in patent US9173403B2, “Parasiticidal compositions comprising multiple active agents, methods and uses thereof” (MERIAL, INC., priority 2010, dated 2015).

Settings: beagle dogs; spot-on administration; 14C radiolabeled drug

For N#Cc1nn(-c2c(Cl)cc(C(F)(F)F)cc2Cl)c(N)c1[S+]([O-])C(F)(F)F (stereo not shown) [fipronil, 5-amino-3-cyano-1-(2,6-dichloro-4-trifluoromethylphenyl)-4-trifluoromethylsulfinylpyrazole], which “time persistently detected in the whole skin after treatment” value is on record?
Its value is “up to 56 days”.
